The values below come from ChEMBL document CHEMBL4014333, “Discovery of Small Molecules for Repressing Cap-Independent Translation of Human Vascular Endothelial Growth Factor (hVEGF) as Novel Antitumor Agents” (J Med Chem, 2017).

The term Kd denotes the equilibrium constant for the complex coming apart.

Structures are written as SMILES. Calls of active or inactive are those of the source. The rule behind the calls is not given here.

The species entered for test [1] is Homo sapiens. Kind of test: Destabilization of wild type internal ribosome entry site A RNA G-quadruplex in CoCl2 treated human MCF7 cells assessed as decrease in VEGF-A protein expression at 0.1875 to 3 uM after 48 hrs by Western blot analysis. (In general: A western blot detects proteins with antibodies after separation by electrophoresis.)
The species entered for test [2] is Homo sapiens. Kind of test: Binding affinity to human 5'-UGAUGAGUGUGAGUAGUA-3' RNA at 1 uM after 24 hrs by spectrophotometric method.
Test [3] is filed under the species Homo sapiens. Kind of test: Inhibition of BG4 protein binding to human wild type internal ribosome entry site A RNA G-quadruplex in MCF7 cells transfected with pcDNA3.1-BG4 plasmid at 2.5 to 5 uM after 24 hrs by RT-PCR analysis. In kind it is cell-based.
A further test relates to MCF7. Kind of test: Effect on human VEGF-A transcription expressed in human MCF7 cells assessed as Met luciferase gene expression at 0.1875 to 3 uM by RT-PCR analysis. In kind it is functional, cell-based.
For test [4], the species on record is Homo sapiens. Kind of test: Destabilization of human 5'-UGAAGAGUGUGAGUAGUA-3' RNA expressed in MCF7 cells assessed as down regulation of VEGF-A translation at up to 1.5 uM after 24 hrs by dual-luciferase reporter gene assay. In kind it is cell-based. (In general: A reporter such as luciferase makes a cellular process visible.)
Another test relates to Mus musculus. Kind of test: Downregulation of VEGF-A expression in tumor of Balb/c mouse xenografted with human MCF7 cells at 7.5 mg/kg, ip qd for 20 days by immunohistochemical analysis. Format: functional, organism-based. On the technique in general: In xenograft studies the graft and the host belong to different species.
The nature of test [5]: Inhibition of NT-647 dye-labeled BG4 binding to human wild type internal ribosome entry site A RNA G-quadruplex assessed as BG4 antibody Kd by MST analysis (reference value: 10.8 nM).
The species entered for test [6] is Homo sapiens. The test is described as follows: Inhibition of NT-647 dye-labeled BG4 antibody binding to human 5'-UGAUGAGUGUGAGUAGUA-3' RNA by MST analysis.
Test [7] in a line: Binding affinity to TERRA RNA G-quadruplex (unknown origin) at 1 uM after 24 hrs by spectrophotometric method.
Test [8] in a line: Binding affinity to BCL-2 RNA G-quadruplex (unknown origin) at 1 uM after 24 hrs by spectrophotometric method.
Test [9] is filed under the species Homo sapiens. Kind of test: Destabilization of human wild type 5'-FAM labeled internal ribosome entry site A RNA G-quadruplex at 2.5 to 10 uM measured after 3 hrs by electrophoresis mobility shift assay.
The species entered for test [10] is Homo sapiens. Kind of test: Binding affinity to internal ribosome entry site A RNA G-quadruplex region of VEGF-A protein in human MDA-MB-231 cells assessed as inhibition of VEGF-A protein induced cell migration at 0.5 to 8 uM after 4 hrs by RTCA method. In kind it is cell-based.
The species named for test [11] is Homo sapiens. The test is described as follows: Binding affinity to internal ribosome entry site A RNA G-quadruplex region of VEGF-A protein in human MDA-MB-231 cells assessed as VEGF-A protein induced cell migration at 3 uM after 24 hrs by MTT dye based Transwell assay relative to control.
A short description of test [12]: Binding affinity to 5'- FAM-labeled c-Kit1 G-quadruplex DNA (unknown origin) up to 100 uM after 5 mins by MST analysis.
For test [13], the species on record is Homo sapiens. The test is described as follows: Binding affinity to human 5'-UCGGGCCGGGAGGAGCCGCAGCCGGAA-3' […] at 1 uM after 24 hrs by spectrophotometric method.
Test [14] is filed under the species Homo sapiens. Kind of test: Destabilization of human wild type internal ribosome entry site A RNA G-quadruplex assessed as melting temperature at 5 uM by CD spectra method (reference value: 80.9 +/- 0.8 degreeC).
Test [15] can be described thus: Binding affinity to biotin-labeled DNA hairpin (unknown origin) by SPR analysis.
The nature of test [16]: Binding affinity to 5'- FAM-labeled 5'-GGAGGAGGGGGAGGAGGA-3' DNA (unknown origin) up to 60 uM after 5 mins by MST analysis.

For the molecule `CCN(CC)CCOc1ccc(Nc2nc(-c3ccccc3NC(=O)CCN3CCN(C)CC3)nc3ccccc23)cc1`, the Activity entry in the test listed under Homo sapiens [1] was “Dose-dependent effect”; in the test filed under Homo sapiens [11], 25%. Moreover, the outcome (in the test filed under Homo sapiens [2]; in the test on MCF7; in the test filed under Homo sapiens [4]; in test [7]; in test [8]; in the test listed under Homo sapiens [13]) was inactive. Also, the inhibition result in the test listed under Homo sapiens [3] and in the test filed under Homo sapiens [6] was “Active” in each case. For the same molecule, the outcome (with Mus musculus; in the test filed under Homo sapiens [9]; in the test filed under Homo sapiens [10]; in test [12]; in test [16]) was Active. The equilibrium dissociation constant (Kd) came to 4.64 µM in [5] and 21.2 µM in [15]. In addition, the Tm in the test listed under Homo sapiens [14] was determined as 62.2 °C.
